# Test results published in US10144746B2 (GLOBAL BLOOD THERAPEUTICS, INC., priority 2015, dated 2018).
# Biological target: Human plasma kallikrein (Homo sapiens (Human), UniProt P03952)
# Assay: In vitro plasma kallikrein inhibition assay (chromogenic substrate D-Pro-Phe-Arg-pNa, absorbance at 405 nm, IC50 determination)
# Assay type: biochemical
# Conditions: not given
# Method: In Vitro Plasma Kallikrein Inhibition Assay
# The chromogenic substrate D-Pro-Phe-Arg-pNa, 2HCl (BIOPHEN CS-31(02) from Hyphen BioMed, Neuville-Sur-oise, France) was dissolved in 5 mL deionized water and stored at 4° C. […] All other chemicals were of analytical grade.
# A stock solution of 7 μM in 50% glycerol was stored at −20° C.
# Enzyme reactions were conducted in “assay buffer” comprised of 20 mM HEPES at pH 7.4, 150 mM NaCl, 0.1% PEG-8000 and 0.01% Triton X-100.
# Both enzyme and substrate were diluted in assay buffer.
# Plate measurements were conducted using a SPECTROStar Nano reader (BMG Labtech, San Francisco, Calif., USA). […] We used discrete wavelength, precise, kinetic reads of 15 cycles with a 60 sec cycle time.
# Determination of IC50 values
# The test compound was dissolved in 100% DMSO. The compounds were serially diluted in DMSO in a 7 point dose response. For the assays, 66.5 μL of protease solution (protease in assay buffer) was added per well followed by the addition of 8.5 μL of compound in 100% DMSO. […] After 30 min. incubation at room temperature on an orbital shaker, the reactions were started by the addition of 10 μL substrate solution (in assay buffer, final assay concentration was 600 uM). After the addition of the substrate solution the final DMSO concentration was 10%. The plate was placed again on the shaker for 5 sec, spun at 2000 rpm for 5 sec and read on the spectrophotometer. […] The IC50 value was calculated from the plot of rate vs. inhibitor concentration by a 4 parameter logistic equation: y=A+((B−A)/([…]))
# where y is the rate at the inhibitor concentration, x. A is the minimum y value at the highest inhibitor concentration and B is the y value in the absence of inhibitor, C is the IC50 value and D is the slope factor. The curve fitting was conducted with the non-linear regression routine of the analysis software XLfit (IDBS, version 5.3.1).
# Sequence of Human plasma kallikrein (P03952 391-638): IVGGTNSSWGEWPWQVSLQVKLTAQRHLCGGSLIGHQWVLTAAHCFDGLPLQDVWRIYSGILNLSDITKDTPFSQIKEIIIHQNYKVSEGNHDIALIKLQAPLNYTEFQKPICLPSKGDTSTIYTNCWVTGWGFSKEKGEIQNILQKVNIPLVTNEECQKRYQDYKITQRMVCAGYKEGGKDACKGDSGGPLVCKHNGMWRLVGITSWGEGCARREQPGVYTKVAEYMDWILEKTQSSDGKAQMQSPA
# Sequence of Human plasma kallikrein (P03952 20-390 partner): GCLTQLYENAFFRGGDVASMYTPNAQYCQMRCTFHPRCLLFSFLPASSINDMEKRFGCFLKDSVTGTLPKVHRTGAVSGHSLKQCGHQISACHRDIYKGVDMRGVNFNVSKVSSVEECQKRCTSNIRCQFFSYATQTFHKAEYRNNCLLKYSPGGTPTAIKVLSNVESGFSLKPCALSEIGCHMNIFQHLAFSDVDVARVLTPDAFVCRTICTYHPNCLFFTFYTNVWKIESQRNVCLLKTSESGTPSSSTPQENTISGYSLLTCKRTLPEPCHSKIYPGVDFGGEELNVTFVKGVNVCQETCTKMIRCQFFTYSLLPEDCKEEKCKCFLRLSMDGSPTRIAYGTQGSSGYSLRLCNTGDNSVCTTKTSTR
row,Compound,KLKB1 pIC50
1,"(±)-N-[(6-amino-2,4- dimethylpyridin-3-yl)methyl]- 12-(phenylsulfanyl)-15- oxatetracyclo[6.6.1.0^2,^7.0^9,1^4] pentadeca- 2,4,6,9,11,13-hexaene-4- carboxamide (±)-N-[(6-amino-2,4- dimethylpyridin-3-yl)methyl]-11- (phenylsulfanyl)-15- oxatetracydo[6.6.1.0^2,^7.0^9,1^4] pentadeca-2,4,6,9,11,13- hexaene-4-carboxamide [Example 164]",6.86
2,"Cc1cc(N)nc(C)c1CNC(=O)c1ccc2c(c1)C1OC2(C)c2ccc(-c3ccc(F)cc3)cc21 (racemic) [Example 334, (±)-N-[(6-amino-2,4-dimethyl-pyridin-3-yl)methyl]-12-(4-fluorophenyl)-8-methyl-15-oxatetracyclo[6.6.1.0^2,^7.0^9,1^4] pentadeca-2,4,6,9,11,13-hexaene-4-carboxamide (±)-N-[(6-amino-2,4-dimethylpyridin-3-yl)methyl]-11-(4-fluorophenyl)-8-methyl-15-oxatetracyclo[6.6.1.0^2,^7.0^9,1^4] pentadeca-2,4,6,9,11,13-hexaene-4-carboxamide]",5.6
3,"CON=C(N)c1ccc(CNC(=O)c2ccc3c(c2)[C@@H]2O[C@H]3c3ccc(-c4ccccc4F)cc32)cc1 [Example 240, (1R,8S)-12-(2-fluorophenyl)-N-{[4-(N′-methoxy-carbamimidoyl)phenyl]methyl}-15-oxatetracyclo-[6.6.1.0^2,^7.0^9,1^4]pentadeca-2,4,6,9,11,13-hexaene-4-carboxamide]",4

# Same assay, conditions: read-out: KLKB1 pIC50 (converted)
row,IC50,Compound
1,5.01 nM,"Cc1nc(N)cc(C2CCOCC2)c1CNC(=O)c1ccc2c(c1)[C@@H]1O[C@H]2c2ccc(-c3ccc(F)cc3F)cc21 (single isomer, unassigned) [Example 247]"
2,1 nM,"CCc1cc2c(cc1CC)[C@H]1O[C@@H]2c2ccc(C(=O)NCc3ccc(C(=N)N)cc3)cc21 (single isomer, unassigned) [Example 392]"
3,1 nM,"C=C(C)c1ccc2c(c1)[C@H]1O[C@@H]2c2ccc(C(=O)NCc3c(F)cc(C(=N)N)cc3F)cc21 (single isomer, unassigned) [Example 285]"
4,6030 nM,"CCOC(=O)N=C(N)c1ccc(CNC(=O)c2ccc3c(c2)[C@@H]2O[C@H]3c3ccc(-c4ccc(F)cc4F)cc32)cc1 (single isomer, unassigned) [Example 273]"
5,100 nM,"N=C(N)c1ccc(CNC(=O)c2ccc3c(c2)[C@H]2O[C@@H]3c3cc(C4CC4)c(C4CC4)cc32)cc1 (single isomer, unassigned) [Example 399]"
6,2.45 nM,"N=C(N)c1cc(F)c(CNC(=O)c2ccc3c(c2)[C@@H]2O[C@H]3c3ccc(-n4cccn4)cc32)c(F)c1 (single isomer, unassigned) [Example 286]"
7,30.9 nM,"Cc1ccc2c(N)nccc2c1CNC(=O)c1ccc2c(c1)[C@@H]1O[C@H]2c2ccc(-c3ccccc3F)cc21 (single isomer, unassigned) [Example 299]"
8,100000 nM,"O=C(N[C@@H]1CCNC1)c1ccc2c(c1)[C@@H]1O[C@H]2c2ccc(-c3ccc(F)cc3F)cc21 (single isomer, unassigned) [Example 324]"
9,8.91 nM,"Cc1cc(N)nc(C)c1CNC(=O)c1ccc2c(c1)[C@@H]1O[C@H]2c2ccc(N(C)c3cccc(Cl)c3)cc21 (single isomer, unassigned) [Example 262]"
10,209 nM,"CCc1cc2c(cc1CC)C1OC2c2ccc(C(=O)NCc3c(C)cc(N)nc3C)cc21 (racemic) [Example 303, (±)-N-[(6-amino-2,4-dimethyl-pyridin-3-yl)methyl]-11,12-diethyl-15-oxatetracyclo [6.6.1.0^2,^7.0^9,1^4]pentadeca-2,4,6,9(14),10,12-hexaene-4-carboxamide]"
11,2 nM,"CC(C)c1ccc2c(c1)[C@H]1O[C@@H]2c2ccc(C(=O)NCc3c(F)cc(C(=N)N)cc3F)cc21 (single isomer, unassigned) [Example 298]"
12,10000 nM,"Nc1noc2c(CNC(=O)c3ccc4c(c3)[C@@H]3O[C@H]4c4ccc(-c5ccccc5F)cc43)cccc12 (single isomer, unassigned) [Example 237]"

# Further lines, the compound ahead of its results:
row,Compound,IC50
1,"Cc1nc(N)cc(C2=CCOCC2)c1CNC(=O)c1ccc2c(c1)[C@@H]1O[C@H]2c2ccc(-c3ccc(F)cc3F)cc21 (single isomer, unassigned) [Example 222]",28.2 nM
2,"Nc1cc(CNC(=O)c2ccc3c(c2)C2OC3c3ccc(-c4ccc(F)cc4F)cc32)ccn1 (racemic) [Example 168, (±)-N-[(2-aminopyridin-4-yl)methyl]-12-(2,4-difluorophenyl)-15-oxatetracyclo[6.6.1.0^2,^7.0^9,1^4]-pentadeca-2,4,6,9,11,13-hexaene-4-carboxamide]",20000 nM
3,"Cc1cc(N)nc(C)c1CNC(=O)c1ccc2c(c1)[C@@H]1O[C@H]2c2ccc(N(C)c3cccc(F)c3)cc21 (single isomer, unassigned) [Example 218]",26.9 nM
4,"Cc1cc(N)nc(C)c1CNC(=O)c1ccc2c(c1)C1OC2c2ccc(-c3cc(F)c(F)cc3F)cc21 (racemic) [Example 169, (±)-N-[(6-amino-2,4-dimethylpyridin-3-yl)-methyl]-12-(2,4,5-trifluorophenyl)-15-oxatetra-cyclo [6.6.1.0^2,^7.0^9,1^4]pentadeca-2,4,6,9,11,13-hexaene-4-carboxamide]",34.7 nM
5,"Cc1cc(N)nc(C)c1CNC(=O)c1ccc2c(c1)C1OC2c2ccc(-n3ccc(=O)cc3)cc21 (racemic) [Example 149, (±)-N-[(6-amino-2,4-dimethylpyridin-3-yl]-methyl]-12-(4-oxo-1,4-dihydropyridin-1-yl)-15-oxatetracyclo[6.6.1.0^2,^7.0^9,1^4] pentadeca-2,4,6,9,11,13-hexaene-4-carboxamide]",5890 nM
6,"CCc1cc(N)nc(C)c1CNC(=O)c1ccc2c(c1)C1OC2c2ccc(-c3c(C)cc(F)cc3F)cc21 (racemic) [Example 142, (±)-N-[(6-amino-4-ethyl-2-methylpyridin-3-yl)-methyl]-12-(2,4-difluoro-6-methylphenyl)-15-oxatetracyclo[6.6.1.0^2,^7.0^9,1^4] pentadeca-2,4,6,9,11,13-hexaene-4-carboxamide]",1620 nM
7,"N=C(N)c1ccc(CNC(=O)c2ccc3c(c2)[C@@H]2O[C@H]3c3ccc(-c4ccc(Cl)s4)cc32)cc1 (single isomer, unassigned) [Example 217]",2 nM
8,"CCN(c1cccc(F)c1)c1ccc2c(c1)[C@H]1O[C@@H]2c2ccc(C(=O)NCc3c(C)cc(N)nc3C)cc21 (single isomer, unassigned) [Example 230]",12 nM
9,"N=C(N)c1ccc(CNC(=O)c2ccc3c(c2)C2OC3c3ccc(-c4ccc(F)cc4F)cc32)cc1F (racemic) [Example 198, (±)-N-[(4-carbamimidoyl-3-fluorophenyl)methyl]-12-(2,4-difluorophenyl)-15-oxatetracyclo-[6.6.1.0^2,^7.0^9,1^4]pentadeca-2,4,6,9,11,13-hexaene-4-carboxamide]",20.9 nM
10,"COc1ccc(Oc2ccc3c(c2)C2OC3c3ccc(C(=O)NCc4c(C)cc(N)nc4C)cc32)cn1 (racemic) [Example 152, (±)-N-[(6-amino-2,4-dimethylpyridin-3-yl)-methyl]-12-[(6-methoxypyridin-3-yl)oxy]-15-(oxatetracyclo[6.6.1.0^2,^7.0^9,1^4]pentadeca-2,4,6,9,11,13-hexaene-4-carboxamide]",1260 nM
11,"N=C(N)c1ccc(CNC(=O)c2ccc3c(c2)[C@@H]2O[C@H]3c3ccc(Br)cc32)cc1 (single isomer, unassigned) [Example 206]",37.2 nM
12,"CCN(C(=O)c1ccccc1)c1ccc2c(c1)[C@H]1O[C@@H]2c2ccc(C(=O)NCc3c(C)cc(N)nc3C)cc21 (single isomer, unassigned) [Example 234]",10000 nM
13,"Cc1ccc(-c2ccc3c(c2)C2OC3c3ccc(C(=O)NCc4c(C)cc(N)nc4C)cc32)c(C#N)n1 (racemic) [Example 157, (±)-N-[(6-amino-2,4-dimethylpyridin-3-yl)-methyl]-12-(2-cyano-6-methylpyridin-3-yl)-15-oxatetracyclo [6.6.1.0^2,^7.0^9,1^4] pentadeca-2,4,6,9,11,13-hexaene-4-carboxamide]",22.9 nM
14,Cc1cc(N)nc(C)c1CNC(=O)c1ccc2c(c1)C1OC2c2ccc(-c3ccc(F)c(F)c3F)cc21 (racemic) [Example 104],28.2 nM
15,"Cc1cc(N)nc(C)c1CNC(=O)c1ccc2c(c1)[C@@H]1O[C@H]2c2ccc(CN3CCCN(C)C3=O)cc21 (single isomer, unassigned) [Example 235]",12.9 nM
16,"N/C(=N\O)c1ccc(CNC(=O)c2ccc3c(c2)C2OC3c3ccc(-c4ccc(F)cc4F)cc32)cc1F (racemic) [Example 197, (±)-12-(2,4-difluorophenyl)-N-({3-fluoro-4-[N′-hydroxycarbamimidoyl]phenyl}methyl)-15-oxatetracyclo[6.6.1.0^2,^7.0^9,1^4] pentadeca-2,4,6,9,11,13-hexaene-4-carboxamide]",100000 nM
